Several values for one entry are separate records, joined by “and”; a condition that tells them apart may be missing. Equal values may be shown once.
Key:
[1] = Optical properties and NIR-II quantum yield in 5% BSA saline; type: physicochemical
Protocol: Fluorescence Quantum yield measurement and physicochemical properties: The absorption and emission spectra of fluorophores were measured in 5% BSA saline using UV/Vis/NIR spectrometers (USB2000+VIS+NIR+ES and Flame-NIR, Ocean Insight, Dunedin, FL). Fluorescence emission spectra were collected by NIR excitation with an 808-nm laser. To calculate NIR-II fluorescence quantum yield, the following equation was used:
[formula] • where QYsample is the QY of SH1, QYref is the QY of ICG in 30% FBS supplemented with 50 mM HEPES, nsample and nref are the refractive indices of SH1 and ICG solutions which are both water (1.33) in this case. In silico calculations of molecular weight, the distribution coefficient (LogD at pH 7.4), surface molecular charge, polarizability, and 3D molecular surface area were performed using MarvinSketch (ChemAxon, Budapest, Hungary).

[2] = tested on: pancreatic ductal adenocarcinoma (PDAC; Pan02 cell); experiment: NIR-II fluorescence imaging of subcutaneous PDAC tumor-bearing C57BL/6 mice; type: in vivo, mouse
Text: General NIR-II fluorescence imaging: A 640×512-pixel InGaAs camera (Ninox640, Raptor Photonics) and macro zoom lens (0-10×; Navitar Zoom 7000 with SWIR coating) along with 900, 1070, 1100, and 1200 nm long-pass (LP) filters from either Thorlab or Edmund optics were used to collect the NIR-II signal. InGaAs camera played a role as an open-air imaging system along with the support of the FLARE system. An 808 nm fiber-coupled diode laser ([…] at the sample) was used as an excitation source. Data acquisition was done using in-house developed software. The mice fur on the region of interest was shaved prior to imaging using a clipper and removed completely using a depilatory cream. 100 μL of SH1 in 5 w/v % BSA saline ([…]) was injected through the tail vein. Mice were imaged with intact skin using InGaAs camera. At least 3 mice were analyzed for each sample. […]
(§1) Statistical analysis: The fluorescence and background intensities of a region of interest over each tissue were quantified using customized imaging software and ImageJ v1.48 (National Institutes of Health, Bethesda, MD). The signal-to-background ratio (SBR) was calculated as SBR=fluorescence/background, where background was the fluorescence intensity of muscle. […] The differences among groups were determined using one-way ANOVA analysis to assess the statistical differences among more than two groups. […]

PDAC (Pan02 cell line) = experiment: Tumor targeting in Pan02 inoculated immune-deficient athymic nude mice; type: in vivo, mouse
Text: General NIR-II fluorescence imaging: A 640×512-pixel InGaAs camera (Ninox640, Raptor Photonics) and macro zoom lens (0-10×; Navitar Zoom 7000 with SWIR coating) along with 900, 1070, 1100, and 1200 nm long-pass (LP) filters from either Thorlab or Edmund optics were used to collect the NIR-II signal. InGaAs camera played a role as an open-air imaging system along with the support of the FLARE system. An 808 nm fiber-coupled diode laser ([…] at the sample) was used as an excitation source. Data acquisition was done using in-house developed software. The mice fur on the region of interest was shaved prior to imaging using a clipper and removed completely using a depilatory cream. 100 μL of SH1 in 5 w/v % BSA saline ([…]) was injected through the tail vein. Mice were imaged with intact skin using InGaAs camera. At least 3 mice were analyzed for each sample.
as §1

[3] = Photostability under xenon lamp irradiation; type: physicochemical; conditions: 2 h
Protocol: Optical Study, Photostability, Physicochemical Properties, and DFT Calculation: 1 mM stock solution in DMSO of the synthesized fluorophores was prepared before starting any spectral measurement. Optical properties for the synthesized fluorophores were measured in four different solvents (EtOH, DMSO, HEPES, and PBS). Absorbance spectra were measured in a Varian Cary 50 absorbance spectrophotometer (190-1100 nm). Fluorescence emission and photostability were measured and emission spectra were recorded on a Shimadzu RF-5301PC spectrofluorometer. Physicochemical properties (Log D, molecular mass, TPSA, H bond D/A, polarizability, molecular volume, and rotatable bonds) were predicted by ChemAxon (JChem plugin). Theoretical calculations of frontier molecular orbitals (FMOs) for the optimized structures of selected fluorophores were calculated based on DFT calculations at the B3LYP/6-311G(d,p) level.
In consideration of theranostic (therapeutics and diagnostic) applications, NIR cyanine fluorophores are synthesized for fluorescence imaging, photodynamic therapy (PDT), photothermal therapy (PTT), optoacoustic imaging, and cancer immunotherapy. One of the approaches before using these fluorophores in those applications is to study their biodistribution and clearance pattern in vivo. […] The power density of 150 W is much higher than the required power for fluorescence imaging, considering that the time it takes for a fluorophore to clear from the background and accumulate in sufficient quantities in the targeted tissues is unknown. […] By considering this, an aliquot of the stock solution (1 mM in DMSO) was diluted in ethanol, and the fluorescence intensity was measured at the excitation wavelength same as their absorption maxima (nm). Photodegradation rates were measured every 20 min intervals for the selected fluorophores based on the % reduced fluorescence intensity starting from 100%. […] The data were collected in every 20 min intervals under continuous irradiation with a xenon lamp at 150 W for 2 h and presented based on the % reduced fluorescence intensity starting from 100%. […]

SMILES: CCCCN1/C(=C/C=C2\CCCC(/C=C/C3=[N+](CCCC)c4ccc(Cl)cc4C3(C)C)=C2Cl)C(C)(C)c2cc(Cl)ccc21 [SH1, 1-butyl-2-((E)-2-((E)-3-(2-((E)-1-butyl-5-chloro-3,3-dimethylindolin-2-ylidene)ethylidene)-2-chlorocyclohex-1-en-1-yl)vinyl)-5-chloro-3,3-dimethyl-3H-indol-1-ium]
- NIR-II tail emission up to ([1]; 5% BSA saline): ~1250 nm
- extinction coefficient ([1]; 5% BSA saline): 333,600 M^−1 cm^−1
- fluorescence emission maximum (NIR-I) ([1]; 5% BSA saline): 820 nm
- quantum yield ([1]; 5 w/v % BSA saline): 11%
- brightness in the NIR-II region relative to ICG ([1]; 808 nm excitation, 1,070 nm LP): 2.2 fold
- brightness in the NIR-II region relative to IR-780 ([1]; 808 nm excitation, 1,070 nm LP): 1.7 fold
- fluorescence brightness in the NIR-II region compared with ICG ([1]; NIR-II region): 225%
- TBR ([2]; PDAC less than 5 mm in size, compared to healthy tissue): ~9.5
- onset of signals in the cancerous region ([2]; intravenous, until 24 h post-injection): did not appear at early time points
- tumor-to-muscle signal ratio (TMR) (PDAC (Pan02 cell line)): ~3.0 and 3.6
- photodegradation (% reduced fluorescence intensity) [3]: I-4
